Data as given in patent US8697739B2, “Bicyclic acetyl-CoA carboxylase inhibitors and uses thereof” (Novartis AG, priority 2010, dated 2014).
pIC50: −log10 of the molar value.

Biological target: T1, human acetyl-CoA carboxylase 2 (ACC2) (Homo sapiens, UniProt O00763)
T1 construct: The cDNA encoding amino acids 144 to 2458 of human acetyl-CoA carboxylase 2; made in house; host or cells: Sf9 insect cells (baculovirus, pFastBac1)
Assay: Acetyl-CoA carboxylase enzyme assay (malonyl-CoA formation by LC/MS/MS)
Assay type: biochemical
Details: recombinant human ACC2 (aa 144-2458); read-out: IC50 ACC2
Outline: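 Malonyl-CoA formation was read by LC/MS/MS MRM against a [13C3]-malonyl-CoA internal standard, after acetic acid quench. The enzyme was baculovirus/Sf9-expressed human ACC2 residues 144–2458, given 15 minutes room-temperature compound preincubation in HEPES pH 7.5 buffer with MgCl2, citrate and DTT. Substrate solution held 50 μM acetyl-CoA, 120 μM ATP and 2 mM KHCO3.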

T1 sequence (O00763 144-2458): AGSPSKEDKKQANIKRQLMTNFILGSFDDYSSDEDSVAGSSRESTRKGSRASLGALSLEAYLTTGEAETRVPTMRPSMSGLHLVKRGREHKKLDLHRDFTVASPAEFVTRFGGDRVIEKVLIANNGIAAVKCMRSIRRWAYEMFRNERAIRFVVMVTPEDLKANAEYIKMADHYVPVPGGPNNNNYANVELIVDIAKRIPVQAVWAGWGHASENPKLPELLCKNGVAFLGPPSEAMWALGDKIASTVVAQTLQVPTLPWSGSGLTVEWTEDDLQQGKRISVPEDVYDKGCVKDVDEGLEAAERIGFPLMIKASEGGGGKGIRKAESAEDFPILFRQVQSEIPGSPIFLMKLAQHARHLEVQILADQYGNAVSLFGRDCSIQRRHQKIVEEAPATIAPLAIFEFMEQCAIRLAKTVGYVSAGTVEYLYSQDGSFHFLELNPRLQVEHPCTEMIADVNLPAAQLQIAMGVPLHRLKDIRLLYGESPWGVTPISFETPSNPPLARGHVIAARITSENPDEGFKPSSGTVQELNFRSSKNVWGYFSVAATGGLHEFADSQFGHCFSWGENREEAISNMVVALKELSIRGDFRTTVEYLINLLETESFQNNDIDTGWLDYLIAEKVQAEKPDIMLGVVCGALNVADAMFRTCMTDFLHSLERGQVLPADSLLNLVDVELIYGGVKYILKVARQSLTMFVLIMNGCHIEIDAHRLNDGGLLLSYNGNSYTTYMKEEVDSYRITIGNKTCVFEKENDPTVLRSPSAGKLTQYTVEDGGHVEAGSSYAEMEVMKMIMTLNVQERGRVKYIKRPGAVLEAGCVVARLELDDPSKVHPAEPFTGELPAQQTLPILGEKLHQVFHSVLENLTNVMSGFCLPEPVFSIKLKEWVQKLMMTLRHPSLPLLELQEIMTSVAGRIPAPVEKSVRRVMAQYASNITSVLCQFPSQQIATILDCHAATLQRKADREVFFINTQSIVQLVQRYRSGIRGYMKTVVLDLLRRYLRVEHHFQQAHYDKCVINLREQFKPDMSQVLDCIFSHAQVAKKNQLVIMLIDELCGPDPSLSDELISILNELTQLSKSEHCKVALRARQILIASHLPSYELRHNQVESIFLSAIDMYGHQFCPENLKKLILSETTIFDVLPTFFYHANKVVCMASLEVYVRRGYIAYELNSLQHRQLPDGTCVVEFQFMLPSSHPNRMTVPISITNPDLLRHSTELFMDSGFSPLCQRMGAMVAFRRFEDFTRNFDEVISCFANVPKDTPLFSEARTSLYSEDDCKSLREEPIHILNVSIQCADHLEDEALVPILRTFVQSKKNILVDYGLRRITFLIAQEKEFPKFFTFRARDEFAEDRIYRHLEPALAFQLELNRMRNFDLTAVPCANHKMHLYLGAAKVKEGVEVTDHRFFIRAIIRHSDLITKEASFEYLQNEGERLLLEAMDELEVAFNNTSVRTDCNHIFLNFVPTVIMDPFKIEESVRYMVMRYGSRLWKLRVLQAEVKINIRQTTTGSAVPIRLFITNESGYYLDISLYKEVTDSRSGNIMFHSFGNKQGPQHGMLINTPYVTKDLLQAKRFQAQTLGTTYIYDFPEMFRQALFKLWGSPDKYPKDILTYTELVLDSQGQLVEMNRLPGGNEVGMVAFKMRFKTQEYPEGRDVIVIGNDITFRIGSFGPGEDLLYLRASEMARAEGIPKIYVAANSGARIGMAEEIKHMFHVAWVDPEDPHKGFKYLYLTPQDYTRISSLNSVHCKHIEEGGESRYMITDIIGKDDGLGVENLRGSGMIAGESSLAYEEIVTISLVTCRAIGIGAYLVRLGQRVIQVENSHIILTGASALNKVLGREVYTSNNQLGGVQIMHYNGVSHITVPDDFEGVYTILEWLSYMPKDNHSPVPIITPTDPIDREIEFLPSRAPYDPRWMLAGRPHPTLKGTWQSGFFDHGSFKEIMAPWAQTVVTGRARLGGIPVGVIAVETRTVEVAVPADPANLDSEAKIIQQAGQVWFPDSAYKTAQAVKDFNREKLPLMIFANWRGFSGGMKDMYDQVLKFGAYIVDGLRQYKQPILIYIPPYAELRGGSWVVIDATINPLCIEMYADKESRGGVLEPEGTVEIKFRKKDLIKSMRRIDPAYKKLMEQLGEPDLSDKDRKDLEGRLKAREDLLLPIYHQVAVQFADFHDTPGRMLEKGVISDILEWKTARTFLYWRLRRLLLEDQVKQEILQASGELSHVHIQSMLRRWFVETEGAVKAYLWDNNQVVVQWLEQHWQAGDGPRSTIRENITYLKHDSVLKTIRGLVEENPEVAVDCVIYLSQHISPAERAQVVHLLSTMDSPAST

SMILES	pIC50
CC(NC(=O)[C@H]1CC[C@H](NS(=O)(=O)c2ccc3[nH]c(-c4cccnc4)cc3c2)CC1)c1ccncc1 (stereo partly drawn) [Example 283, (1r,4r)-4-(2-(pyridin-3-yl)-1H-indole-5-sulfonamido)-N-(1-(pyridin-4-yl)ethyl)cyclohexanecarboxamide]	6.59
CCC(C)NC(=O)[C@H]1CC[C@H](NS(=O)(=O)c2ccc3[nH]c(-c4cccnc4)cc3c2)CC1 (stereo partly drawn) [Example 286, (1r,4r)-N-sec-butyl-4-(2-(pyridin-3-yl)-1H-indole-5-sulfonamido)cyclohexanecarboxamide]	6.47
CCC(C)NC(=O)[C@H]1CC[C@H](NS(=O)(=O)c2ccc3[nH]c(-c4cccnc4)cc3c2)CC1 (stereo partly drawn) [Example 287, (1r,4R)-N-sec-butyl-4-(2-(pyridin-3-yl)-1H-indole-5-sulfonamido)cyclohexanecarboxamide]	6.71
CC(C)N(C)C(=O)[C@H]1CC[C@H](NS(=O)(=O)c2ccc3[nH]c(-c4cccnc4)cc3c2)CC1 [Example 288, (1r,4r)-N-isopropyl-N-methyl-4-(2-(pyridin-3-yl)-1H-indole-5-sulfonamido)cyclohexanecarboxamide]	6.40
CC(C)[C@@H](C)NC(=O)[C@H]1CC[C@H](NS(=O)(=O)c2ccc3[nH]c(-c4cccnc4)cc3c2)CC1 [Example 289, (1r,4R)-N-((R)-3-methylbutan-2-yl)-4-(2-(pyridin-3-yl)-1H-indole-5-sulfonamido)cyclohexanecarboxamide]	6.63
C[C@@H](NC(=O)[C@H]1CC[C@H](NS(=O)(=O)c2ccc3cc(C4CC4)[nH]c3c2)CC1)c1ccc(F)cc1 [Example 290, (1r,4R)-4-(2-cyclopropyl-1H-indole-6-sulfonamido)-N-((R)-1-(4-fluorophenyl)ethyl)cyclohexanecarboxamide]	7.55
COc1ccccc1-c1cc2ccc(S(=O)(=O)N[C@H]3CC[C@H](C(=O)N[C@H](C)c4ccc(F)cc4)CC3)cc2[nH]1 [Example 293]	7.42
C[C@@H](NC(=O)[C@H]1CC[C@H](NS(=O)(=O)c2ccc3cc(C4CC4)[nH]c3c2)CC1)c1ccccn1 [Example 294, (1r,4R)-4-(2-cyclopropyl-1H-indole-6-sulfonamido)-N-((R)-1-(pyridin-2-yl)ethyl)cyclohexanecarboxamide]	6.55
C[C@@H](NC(=O)[C@H]1CC[C@H](NS(=O)(=O)c2ccc3cc(-c4c(Cl)cccc4Cl)[nH]c3c2)CC1)c1ccc(F)cc1 [Example 295, (1r,4R)-4-(2-(2,6-dichlorophenyl)-1H-indole-6-sulfonamido)-N-((R)-1-(4-fluorophenyl)ethyl)cyclohexanecarboxamide]	6.32
Cc1ccc(C)c(-c2cc3ccc(S(=O)(=O)N[C@H]4CC[C@H](C(=O)N[C@H](C)c5ccc(F)cc5)CC4)cc3[nH]2)c1 [Example 298, (1r,4R)-4-(2-(2,5-dimethylphenyl)-1H-indole-6-sulfonamido)-N-((R)-1-(4-fluorophenyl)ethyl)cyclohexanecarboxamide]	7.62
CC(C)Cc1cc2ccc(S(=O)(=O)N[C@H]3CC[C@H](C(=O)N[C@H](C)c4ccc(F)cc4)CC3)cc2[nH]1 [Example 303, (1r,4R)-N-((R)-1-(4-fluorophenyl)ethyl)-4-(2-isobutyl-1H-indole-6-sulfonamido)cyclohexanecarboxamide]	6.24
C[C@@H](NC(=O)[C@H]1CC[C@H](NS(=O)(=O)c2ccc3cc(C4CCCC4)[nH]c3c2)CC1)c1ccc(F)cc1 [Example 304, (1r,4R)-4-(2-cyclopentyl-1H-indole-6-sulfonamido)-N-((R)-1-(4-fluorophenyl)ethyl)cyclohexanecarboxamide]	6.74
C[C@@H](NC(=O)[C@H]1CC[C@H](NS(=O)(=O)c2ccc3cc(CCO)[nH]c3c2)CC1)c1ccc(F)cc1 [Example 305, (1r,4R)-N-((R)-1-(4-fluorophenyl)ethyl)-4-(2-(2-hydroxyethyl)-1H-indole-6-sulfonamido)cyclohexanecarboxamide]	7.22
C[C@@H](NC(=O)[C@H]1CC[C@H](NS(=O)(=O)c2ccc3cc(CCOS(C)(=O)=O)[nH]c3c2)CC1)c1ccc(F)cc1 [Example 306, 2-(6-(N-((1R,4r)-4-((R)-1-(4-fluorophenyl)ethylcarbamoyl)cyclohexyl)sulfamoyl)-1H-indol-2-yl)ethyl methanesulfonate]	7.30
Cc1cc(CO)ccc1-c1cc2ccc(S(=O)(=O)N[C@H]3CC[C@H](C(=O)N4CCOCC4)CC3)cc2[nH]1 [Example 308, 2-(4-(hydroxymethyl)-2-methylphenyl)-N-((1r,4r)-4-(morpholine-4-carbonyl)cyclohexyl)-1H-indole-6-sulfonamide]	7.22
Cc1cc(CO)ccc1-c1cc2ccc(S(=O)(=O)N[C@H]3CC[C@H](C(=O)N4CCN(C(=O)OC(C)(C)C)CC4)CC3)cc2[nH]1 [Example 310, tert-butyl 4-((1r,4r)-4-(2-(4-(hydroxymethyl)-2-methylphenyl)-1H-indole-6-sulfonamido)cyclohexanecarbonyl)piperazine-1-carboxylate]	7.21

The next molecules have a higher pIC50 than those just listed; values first:

pIC50	SMILES
7.74	C[C@@H](NC(=O)[C@H]1CC[C@H](NS(=O)(=O)c2ccc3cc(-c4ccccc4)[nH]c3c2)CC1)c1ccccc1 [Example 282, (1r,4R)-4-(2-phenyl-1H-indole-6-sulfonamido)-N-((R)-1-phenylethyl)cyclohexanecarboxamide]
7.85	C[C@@H](NC(=O)[C@H]1CC[C@H](NS(=O)(=O)c2ccc3[nH]c(-c4cccnc4)cc3c2)CC1)c1ccccc1 [Example 284, (1r,4R)-N-((R)-1-phenylethyl)-4-(2-(pyridin-3-yl)-1H-indole-5-sulfonamido)cyclohexanecarboxamide]
7.92	C[C@@H](NC(=O)[C@H]1CC[C@H](NS(=O)(=O)c2ccc3[nH]c(-c4cccnc4)cc3c2)CC1)c1ccc(F)cc1 [Example 285, (1r,4R)-N-((R)-1-(4-fluorophenyl)ethyl)-4-(2-(pyridin-3-yl)-1H-indole-5-sulfonamido)cyclohexanecarboxamide]
7.77	C[C@@H](NC(=O)[C@H]1CC[C@H](NS(=O)(=O)c2ccc3cc(-c4ccccc4Cl)[nH]c3c2)CC1)c1ccc(F)cc1 [Example 291, (1r,4R)-4-(2-(2-chlorophenyl)-1H-indole-6-sulfonamido)-N-((R)-1-(4-fluorophenyl)ethyl)cyclohexanecarboxamide]
7.92	Cc1ccccc1-c1cc2ccc(S(=O)(=O)N[C@H]3CC[C@H](C(=O)N[C@H](C)c4ccc(F)cc4)CC3)cc2[nH]1 [Example 292, (1r,4R)-N-((R)-1-(4-fluorophenyl)ethyl)-4-(2-o-tolyl-1H-indole-6-sulfonamido)cyclohexanecarboxamide]
> 8.00	C[C@@H](NC(=O)[C@H]1CC[C@H](NS(=O)(=O)c2ccc3cc(-c4ccc(CO)cc4)[nH]c3c2)CC1)c1ccc(F)cc1 [Example 296, (1r,4R)-N-((R)-1-(4-fluorophenyl)ethyl)-4-(2-(4-(hydroxymethyl)phenyl)-1H-indole-6-sulfonamido)cyclohexanecarboxamide]
7.77	COc1ccc(-c2cc3ccc(S(=O)(=O)N[C@H]4CC[C@H](C(=O)N[C@H](C)c5ccc(F)cc5)CC4)cc3[nH]2)c(C)c1 [Example 297, (1r,4R)-N-((R)-1-(4-fluorophenyl)ethyl)-4-(2-(4-methoxy-2-methylphenyl)-1H-indole-6-sulfonamido)cyclohexanecarboxamide]
7.96	C[C@@H](NC(=O)[C@H]1CC[C@H](NS(=O)(=O)c2ccc3cc(-c4ccccc4CO)[nH]c3c2)CC1)c1ccc(F)cc1 [Example 299, (1r,4R)-N-((R)-1-(4-fluorophenyl)ethyl)-4-(2-(2-(hydroxymethyl)phenyl)-1H-indole-6-sulfonamido)cyclohexanecarboxamide]
8.00	COC(=O)c1ccc(-c2cc3ccc(S(=O)(=O)N[C@H]4CC[C@H](C(=O)N[C@H](C)c5ccc(F)cc5)CC4)cc3[nH]2)c(C)c1 [Example 300]
> 8.00	Cc1cc(C(=O)O)ccc1-c1cc2ccc(S(=O)(=O)N[C@H]3CC[C@H](C(=O)N[C@H](C)c4ccc(F)cc4)CC3)cc2[nH]1 [Example 301, 4-(6-(N-((1R,4r)-4-((R)-1-(4-fluorophenyl)ethylcarbamoyl)cyclohexyl)sulfamoyl)-1H-indol-2-yl)-3-methylbenzoic acid]
> 8.00	Cc1cc(CO)ccc1-c1cc2ccc(S(=O)(=O)N[C@H]3CC[C@H](C(=O)N[C@H](C)c4ccc(F)cc4)CC3)cc2[nH]1 [Example 302, (1r,4R)-N-((R)-1-(4-fluorophenyl)ethyl)-4-(2-(4-(hydroxymethyl)-2-methylphenyl)-1H-indole-6-sulfonamido)cyclohexanecarboxamide]
8.00	C[C@@H](NC(=O)[C@H]1CC[C@H](NS(=O)(=O)c2ccc3cc(-c4ccccc4C#N)[nH]c3c2)CC1)c1ccc(F)cc1 [Example 307, (1r,4R)-4-(2-(2-cyanophenyl)-1H-indole-6-sulfonamido)-N-((R)-1-(4-fluorophenyl)ethyl)cyclohexanecarboxamide]
7.70	Cc1cc(CO)ccc1-c1cc2ccc(S(=O)(=O)N[C@H]3CC[C@H](C(=O)N4CCN(C(=O)OC(C)(C)C)C[C@@H]4c4ccccc4)CC3)cc2[nH]1 [Example 309, (S)-tert-butyl 4-((1r,4S)-4-(2-(4-(hydroxymethyl)-2-methylphenyl)-1H-indole-6-sulfonamido)cyclohexanecarbonyl)-3-phenylpiperazine-1-carboxylate]
> 8.00	Cc1cc(CO)ccc1-c1cc2ccc(S(=O)(=O)N[C@H]3CC[C@H](C(=O)N4CCOCC4c4ccccc4)CC3)cc2[nH]1 (stereo partly drawn) [Example 311, 2-(4-(hydroxymethyl)-2-methylphenyl)-N-((1r,4r)-4-(3-phenylmorpholine-4-carbonyl)cyclohexyl)-1H-indole-6-sulfonamide]
